Data published in the supplement of paper PMC10307832.

Tests used:
Assay in all cases: relative viability (nuclei count vs DMSO), 5 days (fraction); higher = more cells survive
AZ628 + Bortezomib = compound: CC1=C(C=C(C=C1)NC(=O)C2=CC(=CC=C2)C(C)(C)C#N)NC3=CC4=C(C=C3)N=CN(C4=O)C [AZ628] + CC(C)C[C@H](NC(=O)[C@H](Cc1ccccc1)NC(=O)c1cnccn1)B(O)O [Bortezomib] (partner 0.002 µM)
Method in brief: (§1)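 A single step with final 0.05% Triton X-100, 1% formaldehyde and 1 ug/ml Hoechst fixed the cells and stained nuclei 5 days after treatment. Lung cancer cell lines in 1536-well plates had been treated by pin tool the day after seeding with one drug alone or a fixed anchor-drug dose plus five library-drug doses (not always all listed) in √10 steps, and nuclei were counted on 4× images. Relative viability is the ratio of nuclei in treated wells to nuclei in vehicle wells, taken as the median of duplicate plates.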

Darinaparsin + Foretinib = compound: C[As](C)SC[C@H](NC(=O)CC[C@H](N)C(=O)O)C(=O)NCC(=O)O [Darinaparsin] + COc1cc2c(Oc3ccc(NC(=O)C4(C(=O)Nc5ccc(F)cc5)CC4)cc3F)ccnc2cc1OCCCN1CCOCC1 [Foretinib] (partner 0.25 µM)
Method in brief: as §1

Darinaparsin + Lapatinib = compound: C[As](C)SC[C@H](NC(=O)CC[C@H](N)C(=O)O)C(=O)NCC(=O)O [Darinaparsin] + CS(=O)(=O)CCNCc1ccc(-c2ccc3ncnc(Nc4ccc(OCc5cccc(F)c5)c(Cl)c4)c3c2)o1 [Lapatinib] (partner 2 µM)
Method in brief: as §1

[1] = compound: C[As](C)SC[C@H](NC(=O)CC[C@H](N)C(=O)O)C(=O)NCC(=O)O [Darinaparsin] + C[C@@H](Oc1cc(-c2cnn(C3CCNCC3)c2)cnc1N)c1c(Cl)ccc(F)c1Cl [Crizotinib] (partner 1 µM)
Method in brief: as §1

| Cell Line | relative viability (AZ628 + Bortezomib; first compound 0.08 µM) | relative viability (AZ628 + Bortezomib; first compound 0.253 µM) | relative viability (AZ628 + Bortezomib; first compound 0.8 µM) | relative viability (AZ628 + Bortezomib; first compound 2.53 µM) | relative viability (AZ628 + Bortezomib; first compound 8 µM) | relative viability (Darinaparsin + Foretinib; first compound 0.08 µM) | relative viability (Darinaparsin + Foretinib; first compound 0.8 µM) | relative viability (Darinaparsin + Foretinib; first compound 2.53 µM) | relative viability (Darinaparsin + Foretinib; first compound 8 µM) | relative viability (Darinaparsin + Lapatinib; first compound 0.08 µM) | relative viability (Darinaparsin + Lapatinib; first compound 0.8 µM) | relative viability (Darinaparsin + Lapatinib; first compound 2.53 µM) | relative viability (Darinaparsin + Lapatinib; first compound 8 µM) | relative viability ([1]; first compound 0.08 µM) | relative viability ([1]; first compound 0.8 µM) | relative viability ([1]; first compound 2.53 µM) | relative viability ([1]; first compound 8 µM) |
| --- | --- | --- | --- | --- | --- | --- | --- | --- | --- | --- | --- | --- | --- | --- | --- | --- | --- |
| NCI-H1734 | 0.969 | 0.809 | 0.903 | 0.756 | 0.562 | 1.04 | 0.801 | 0.815 | 0.99 | 1.87 | 1.01 | 0.951 | 1.31 | 0.892 | 0.724 | 0.686 | 0.736 |
| EKVX | 1.17 | 1.11 | 1.21 | 1.09 | 0.603 | 0.835 | 0.445 | 0.743 | 0.786 | 0.188 | 0.165 | 0.234 | 0.216 | 1.22 | 0.935 | 0.813 | 1.23 |
| NCI-H1355 | 1.21 | 1.03 | 1.12 | 1.12 | 1.1 | 1.09 | 0.91 | 0.854 | 0.768 | 1.11 | 0.845 | 0.893 | 1.17 | 1.13 | 1.06 | 0.852 | 1.18 |
| Calu-6 | 1.03 | 0.943 | 0.61 | 0.792 | 0.244 | 1.04 | 1.02 | 0.861 | 0.938 | 1.45 | 1.14 | 1.09 | 1.06 | 1.17 | 0.857 | 0.665 | 0.751 |
| NCI-H1650 | 0.165 | 0.203 | 0.18 | 0.203 | 0.214 | 0.869 | 1.06 | 0.791 | 1.33 | 1 | 0.764 | 0.779 | 0.938 | 1.14 | 0.98 | 0.795 | 1.17 |
| H3255 | 0.837 | 0.621 | 0.811 | 0.81 | 0.66 | 0.781 | 0.863 | 0.913 | 0.854 | 0.253 | 0.28 | 0.25 | 0.216 | 1.14 | 0.773 | 0.789 | 0.895 |
| IA-LM | 0.931 | 0.689 | 0.54 | 0.551 | 0.165 | 1.51 | 1.27 | 1.35 | 1.55 | 1.25 | 0.658 | 1.32 | 1.07 | 1.06 | 0.645 | 0.788 | 0.923 |
| NCI-H23 | 1.12 | 1.01 | 0.805 | 0.887 | 0.551 | 0.986 | 0.843 | 0.891 | 1.06 | 1.54 | 0.999 | 1.22 | 1.38 | 0.753 | 0.428 | 0.412 | 0.515 |
| NCI-H1755 | 0.947 | 0.878 | 0.909 | 0.942 | 0.818 | 0.994 | 0.931 | 0.868 | 1.08 | 1.1 | 0.981 | 1.01 | 1.46 | 1.08 | 0.827 | 0.807 | 1.12 |
| NCI-H650 | 1.2 | 1.05 | 1.32 | 0.744 | 1.02 | 1.09 | 1.05 | 1.13 | 1.03 | 0.87 | 0.703 | 0.897 | 0.886 | 0.861 | 0.574 | 0.683 | 0.899 |
| NCI-H1437 | 0.488 | 0.544 | 0.425 | 0.486 | 0.556 | 1.35 | 1.3 | 1.24 | 1.32 | 1.15 | 0.769 | 0.719 | 0.974 | 1.23 | 0.865 | 0.716 | 1.32 |
| NCI-H460 | 1.18 | 1.13 | 0.8 | 0.994 | 0.952 | 1.04 | 1.04 | 1.03 | 1.33 | 1.03 | 1.3 | 0.731 |  |  | 0.91 | 0.607 | 1.56 |
| HARA | 1.1 | 1.08 | 1.08 | 1.03 | 0.568 | 0.944 | 0.927 | 0.712 | 0.938 | 0.77 | 0.692 | 0.649 | 0.755 | 1.46 | 1.05 | 0.783 | 1.27 |
| NCI-H2085 | 1.2 | 1.02 | 1.19 | 1.07 | 1.06 | 1.12 | 0.975 | 0.863 | 0.902 | 0.809 | 0.697 | 0.776 | 0.916 | 0.936 | 0.858 | 0.768 | 0.9 |
| RERF-LC-KJ | 1.22 | 1.14 | 1.29 | 1.12 | 1.03 | 1.03 | 0.931 | 0.859 | 0.961 | 1.11 | 0.849 | 0.762 | 1.03 | 1.01 | 0.925 | 0.791 | 0.96 |
| HCC-78 | 0.675 | 0.457 | 0.586 | 0.487 | 0.623 | 0.555 | 0.492 | 0.53 | 0.483 | 0.76 | 0.58 | 0.704 | 0.885 | 0.36 | 0.316 | 0.332 | 0.348 |
| NCI-H2087 | 0.831 | 0.738 | 0.783 | 0.775 | 0.399 | 1.44 | 1.09 | 1.03 | 1.37 | 1.29 | 1.02 | 0.951 | 0.997 | 1.04 | 0.911 | 0.889 | 1.11 |
